# According to patent publication US12195419B2, “Glutamine antagonists and uses thereof” (The Johns Hopkins University, priority 2017, dated 2025):
# Read-outs that look alike come from different tables or passages of the source.
# Assays:
# P493B lymphoma cells [1] = assay: Cell proliferation assay (CellTiter 96 AQueous); assay type: cell-based, human; conditions: for EC50: Homo sapiens, 72 h incubation, read-out: EC50 (cell viability)
# Description: The cell proliferation assay was performed using the CellTiter 96® AQueous one solution cell proliferation reagent following the manufacturers' instruction (Promega, USA). Briefly, P493B lymphoma cells were plated in 96 well plates at a density of 20,000 cells/well in a final volume of 100 μL growth media. Test compound stocks were made in DMSO and were added to cells in a 1:10 serial dilution with a final concentration of 0.2% DMSO. Cells were allowed to proliferate for 72 h in the presence of test compounds. Thereafter, 20 μL of CellTiter 96™ AQeous (Promega #3580) was added per well and incubated for 2 h. Absorbance was measured at 490 nm.
# DON and compound 7 were incubated with P493B lymphoma cells for 72 h, and cell viability was measured.
# P493B tumor cells = assay: Time dependent tumor cell to plasma partitioning of compound 7; assay type: cell-based, human
# Description: (§1) Tumor cell to plasma partitioning assay was conducted in P493B lymphoma cells (obtained from Dr. Chi Dang, Abramson Cancer Center, University of Pennsylvania, Philadelphia, PA; (REF, Nature 458, 762-765, 2009). In brief, cells were grown in 150 cm^2 cell T-flasks (Falcon™, USA) with RPMI 1640, 1× L-glutamine medium (Corning™ Cellgro™, USA) supplemented with 10% (v/v) FBS (Gibco™, USA), and 1% streptomycin and gentamycin (Gibco™, USA). All cells were incubated at 37° C., in a humidified atmosphere with 5% CO2. The cell confluency was monitored visually using an Axiovert 25 optical microscope equipped with an 3CCD digital camera. Upon confluency, cell suspension was collected and centrifuged at 1000 rpm for 5 min at 25° C. to collect the cell pellet. The supernatant media was decanted, the cell pellet was re-suspended in 20 mL of DPBS (Gibco™, USA), and maintained at 37° C. in order to remove the media traces.
# The cell count was determined using an automated cell counter (Bio-Rad, USA) following a 1:1 dilution of an aliquot with 0.4% trypan blue solution (Bio-Rad, USA). The cell suspension in DPBS was centrifuged at 1000 rpm for 5 min at 25° C. to collect the cell pellet. The supernatant DPBS was decanted and the cell pellets were resuspended in human plasma (Innovative Research, USA) to obtain a cell density of 10 million cells/mL of plasma. […]
# [2] = Compound 7 dog pharmacokinetic study (SC); assay type: in vivo; conditions: beagle dog plasma, actual dose 2.6 mg/kg (DON eq. 0.8 mg/kg)
# Text: Compound 7 was administrated to a beagle dog subcutaneously. FIG. 4C is a line graph showing its plasma pharmacokinetics in the dog.
# P493B lymphoma cells [3] = assay: Human tumor cell to plasma partitioning assay, single time-point (compounds 1, 7, 12, 16 and DON); assay type: cell-based; conditions: 20 μM; for DON release in plasma: human plasma containing P493B cells, 1 h incubation
# Description: Compounds 1, 7, 12 and 16 were evaluated for their ability to be taken up in tumor cells and cleaved to give DON. The experimental conditions are described below.
# as §1
# The cell count was determined using an automated cell counter (Bio-Rad, USA) following a 1:1 dilution of an aliquot with 0.4% trypan blue solution (Bio-Rad, USA). The cell suspension in DPBS was centrifuged at 1000 rpm for 5 min at 25° C. to collect the cell pellet. The supernatant DPBS was decanted and the cell pellets were resuspended in human plasma (Innovative Research, USA) to obtain a cell density of 10 million cells/mL of plasma. For analysis of cell partitioning cell-plasma suspension, 1 ml, was pre-incubated at 37° C. for 5 min, following which, compounds were spiked for a final concentration of 20 μM and re-incubated at 37° C. for 1 h. Following incubation, the cell suspension was centrifuged at 10000 rpm for 10 min at 4° C. Supernatant plasma obtained after centrifugation was collected and stored at −80° C. for intact compound and DON analysis. The cell pellet was washed once with ice cold DPBS, followed by centrifugation and stored at −80° C. for intact prodrug and/or DON analysis by LC-MS/MS.
# For quantification of DON and intact compound, cell pellets were weighed and suspended in 50 μL of water. To the cell suspension, ice cold methanol with internal standards (losartan: 0.5 μM and glutamate D5: 10 μM) were added in a 5:1 ratio of solvent to cell suspension. The cell samples were vortexed, mixed for 30 sec and centrifuged at 10,000 rpm for 10 min at 4° C. For intact compound bioanalysis, 50 μL of the supernatant obtained after centrifugation was diluted with 50 μL water and transferred to a 250 μL polypropylene vial sealed with a Teflon cap. DON bioanalysis was performed following dabsyl chloride derivatization method with minor modifications (see, Rais et al., 2016; Nedelcovych et al., 2017). Briefly, 200 μL of the supernatant was collected in a separate tube and dried at 45° C. under vacuum for 1 h. To each tube, 50 μL of 0.2 M sodium bicarbonate buffer (pH 9.0) and 100 μL dabsyl chloride stock was added. […] The standard curve for DON quantification in the cell pellet was prepared using naïve P493B cells diluted with water to the equivalent ratio as that of sample.
# Briefly, DON was analyzed on a Dionex ultra high-performance system consisting of an analytical pump, and an autosampler coupled with Q Exactive Focus orbitrap mass spectrometer (Thermo Fisher Scientific Inc., Waltham MA). […]
# [4] = Dog pharmacokinetic study of compound #2 (IV infusion or SC); assay type: in vivo; conditions: intact #2 in plasma, 0.2 mg/kg DON equivalent, male beagle dog; for AUC(0-t): read-out: Intact compound AUC0-t
# Description: The dog pharmacokinetic study was conducted in accordance with the guidelines recommended in Guide for the Care and Use of Laboratory Animals and was approved by the Absorption Systems (San Diego, CA) Institutional Animal Care and Use Committee. Compound #2 was administered to male beagle dogs (n=1/group) as a bolus subcutaneous dose or infused over 1 h at a dose of 0.2 mg/kg DON equivalent. Blood samples were collected from the jugular vein (˜1 mL) via direct venipuncture at 0 min, 5 min (IV only), 15 min, 1 h, 2 h, 4 h, 8 h, and 24 h, post dose, placed into sodium heparin tubes, and maintained on wet ice until processing. Blood samples were centrifuged at a temperature of 4° C., at 3000× g, for 5 minutes. Plasma was collected in tubes and flash frozen. Samples were stored in a freezer set to maintain −60° C. to −80° C. until bioanalysis as described previously (see, Rais et al., 2016; Nedelcovych et al., 2017).
compound,measurement,setting,value
"[N-]=[N+]=CC(=O)CC[C@H](N)C(=O)O [DON, 6-diazo-5-oxo-L-norleucine, reference compound]",EC50,P493B lymphoma cells [1],10 ± 0.11 µM
CC(=O)NCCCC[C@H](NC(=O)C12CC3CC(CC(C3)C1)C2)C(=O)N[C@@H](CCC(=O)C=[N+]=[N-])C(=O)OC(C)C [Compound 7],improvement of tumor cell killing vs DON,"P493B lymphoma cells [1]; 72 h, EC50 compared to DON",two-fold
same,EC50,P493B lymphoma cells [1],5 ± 0.12 µM
same,intact compound observed in tumor cells,P493B tumor cells,< 1%
same,AUC,"[2]; N = 1, read-out: AUC Cpd 7",2.1 µM·h
same,Cmax,"[2]; N = 1, read-out: Cmax Cpd 7",640 nM
same,DON release in plasma,P493B lymphoma cells [3],minimal DON release
"CC(=O)NCCCC[C@H](NC(=O)OCC1c2ccccc2-c2ccccc21)C(=O)N[C@@H](CCC(=O)C=[N+]=[N-])C(=O)OC(C)C [Compound 2, Isopropyl 2-(2-((((9H-fluoren-9-yl)methoxy)carbonyl)amino)-6-acet-amidohexanamido)-6-diazo-5-oxohexanoate]",Cmax,[4]; IV infusion over 1 h,6570 nM
same,Tmax,[4]; IV infusion over 1 h,0.08 h
same,AUC(0-t),[4]; IV infusion over 1 h,7.45 µM·h
same,Cmax,[4]; SC bolus,470 nM
same,Tmax,[4]; SC bolus,4 h
same,AUC(0-t),[4]; SC bolus,2.6 µM·h
"CC(=O)NCCCC[C@H](NC(=O)[C@@H]1Cc2ccccc2CN1C(C)=O)C(=O)N[C@@H](CCC(=O)C=[N+]=[N-])C(=O)OC(C)C (stereo in doubt) [Compound 16, Isopropyl 2-(6-acetamido-2-(2-acetyl-1,2,3,4-tetrahydroisoquinoline-3-carboxamido)hexanamido)-6-diazo-5-oxohexanoate]",DON release in plasma,P493B lymphoma cells [3],minimal DON release
same,DON release in tumor cells (tumor cell DON concentrations),"P493B lymphoma cells [3]; human plasma with 10 million P493B cells, 37° C., 1 h, compared to DON",minimal release
"CC(=O)NCCCC[C@H](NC(=O)OC(C)(C)C)C(=O)N[C@@H](CCC(=O)C=[N+]=[N-])C(=O)OC(C)C [Compound 1, Isopropyl 2-(6-acetamido-2-((tert-butoxycarbonyl)amino)-hexanamido)-6-diazo-5-oxohexanoate]",DON release in plasma,P493B lymphoma cells [3],minimal DON release
"CC(=O)NCCCC[C@H](NC(=O)[C@H](Cc1c[nH]c2ccccc12)NC(C)=O)C(=O)N[C@@H](CCC(=O)C=[N+]=[N-])C(=O)OC(C)C (stereo in doubt) [Compound 12, Isopropyl 2-(6-acetamido-2-(2-acetamido-3-(1H-indol-3-yl)propan-amido)hexanamido)-6-diazo-5-oxohexanoate]",DON release in plasma,P493B lymphoma cells [3],minimal DON release
